Results reported in patent US12186405B2, “Cleavable tetrazine used in bio-orthogonal drug activation” (TAGWORKS PHARMACEUTICALS B.V., priority 2016, dated 2025).

How the values were obtained:
[1] = Reactivity (second order rate constant k2) between TZ Triggers and TCO Activator 4.9 in MeCN at 20° C.; type: physicochemical
Procedure: The second order rate constant of the reaction (k2) between a TZ and TCO 4.9 was determined under pseudo first order conditions in MeCN at 20° C. using UV spectroscopic monitoring. […] From the decrease of this absorption, the half-life of the pseudo first order reaction between TZ and TCO was determined. The second order rate constant k2 was obtained by calculation from this half-life and the concentration of TCO

[2] = Rate of release of Constructs from IEDDA adducts formed by activation of TZ Trigger with TCO Activator 4.9; type: physicochemical
Procedure: (§1) Then, 10 μL of a 50 mM TCO 4.9 stock solution in DMSO (5.0×10^−7 mol TCO) was added. After the complete disappearance of the pink color (this takes typically between 5 and 30 min, and is due to the IEDDA reaction between TZ and TCO thereby forming IEDDA adducts), the sample was diluted with PBS to a total volume of 1 mL (t=0). […] At selected time points, this solution was analyzed by HPLC-PDA/MS. The decrease of the IEDDA adduct absorption(s) and/or the rise of the leaving group absorption indicated the conversion of the release reaction. […] Alternatively, the rate of the release reaction can be indicated by the conversion (in %) after a certain reaction time (in hours).

[3] = Stability of tetrazine (TZ) Triggers in a MeCN/PBS mixture
Procedure: (§2) 10 μL of a 25 mM TZ stock solution in DMSO (2.5×10^−7 mol TZ) was diluted with MeCN and PBS to a total volume of 1 mL. The aqueous solution was incubated at 20° C. or at 37° C. At selected time points, the TZ solution was analyzed by HPLC-PDA/MS.

[4] = Rate of release of Constructs from IEDDA adducts formed by activation of TZ Trigger with TCO Activator 4.9; type: physicochemical; settings: Method F: MeCN at 37° C.; 23 h
[5] = Rate of release of a Construct from the IEDDA adduct in 50% mouse serum/PBS; type: in vitro ADME; settings: 37° C., 21 h
Procedure: 10 μL of a 25 mM TZ stock solution in DMSO (2.5×10^−7 mol TZ) was diluted with MeCN (50 μL), PBS (475 μL), and mouse serum (475 μL). Then, a stock solution of the appropriate TCO (20 μL 50 mM in DMSO; 1.0×10^−6 mol) was added, and the mixture was incubated at 37° C. At selected time points, aliquots (250 μL) were taken, diluted with cold MeCN (500 μL), stored at 4° C. for 30 min, and then centrifuged at 13400 rpm for 5 min. Part of the clear supernatant (250 μL) was diluted with water (500 μL) and the sample was analyzed by HPLC-PDA/MS.

[6] = Stability of TZ Triggers in 50% mouse serum/PBS; type: in vitro ADME; settings: 37° C.
Procedure: The mixture was incubated at 37° C. […] The stability was determined as outlined in Example 5.

physchem = settings: buffer
Procedure: as §2

[7] = Rate of release of Constructs as Example 7 but after reaction with sTCO 4.8; type: physicochemical; settings: Method E: 5% MeCN in PBS at 37° C.
Procedure: as §1, with “Then, 10 μL of a 50 mM TCO 4.9 stock solution in DMSO (5.0×10^−7 mol TCO) was added.” left out

[8] = Reactivity (k2) as Example 6 but assessed with sTCO 4.8; type: physicochemical; settings: assessed with sTCO 4.8 and not TCO 4.9; MeCN at 20° C.
Procedure: A cuvette was filled with 3 mL of a 3.33 mM TCO solution in MeCN (1.0×10^−5 mol TCO) and this solution was equilibrated at 20° C. […] From the decrease of this absorption, the half-life of the pseudo first order reaction between TZ and TCO was determined. The second order rate constant k2 was obtained by calculation from this half-life and the concentration of TCO

[9] = test system: LS174T colon carcinoma xenografts; assay: In vivo on-tumor reaction between ADC and TCO activators (tumor blocking, ^111In-TCO probe uptake); set-up: species or system mouse; settings: ADC (2 mg/kg), one hour later ^111In-TCO probe, 4 h after probe injection
Procedure: DOTA-PEG11-TCO probe 4.4 was labeled with indium-111 in 0.2 M ammonium acetate buffer (pH 6.0) for 10 min at 60° C. followed by a DTPA-challenge to complex any unreacted radiometal. The radiolabeling yield (>95%) and radiochemical purity (>95%) of the obtained ^111In-TCO probe was assessed by radio-ITLC and radio-RP-HPLC, respectively. The on-tumor reactivity between AVP0450-15.4 ADC and two different activators, sTCO—COOH (4.8) and sTCO-PEG11-OH (4.6) in two different doses (100 and 1000 eq with respect to ADC) was evaluated with an in vivo competition assay (tumor blocking), as previously described for a CC49-TCO-Dox conjugate and tetrazine-activators (R. Rossin et al., Bioconjug Chem 2016, 27, 1697-1706). Briefly, mice bearing subcutaneous LS174T colon carcinoma xenografts (n=4 per group) were administered the ADC (2 mg/kg) followed after 48 h by the activator and, one hour later, by the ^111In-TCO probe (1 eq with respect to ADC). The probe uptake in tumors was then compared with mice that received the ADC followed only by the ^111In-TCO probe (no blocking) and with mice that received the ^111In-TCO probe alone (complete blocking). All mice were euthanized 4 h after probe injection. Blood samples were obtained from heart puncture, tumors and other tissues of interest were dissected, blotted dry, weighed and counted in a gamma-counter.

[10] = Method C: 20% MeCN in PBS at 37° C., 16 h
[11] = Method A: 33% MeCN in PBS at 20° C., 16 h

CC(OC(=O)NCc1ccccc1)c1nnc(C(C)OC(=O)NCc2ccccc2)nn1 (mixture of isomers) [Compound 2.5]
Reactivity k2 ([1]; TZ with TCO in MeCN at 20° C.): 1.5 M⁻¹ s⁻¹

CC(OC(=O)N(C)Cc1ccccc1)c1nnc(C(C)OC(=O)N(C)Cc2ccccc2)nn1 (mixture of isomers) [Compound 2.36]
Release % (conversion) [2, 10]: 100% (16 h)

CC(OC(=O)N(c1ccccc1)C(C)C)c1nnc(C(C)OC(=O)N(c2ccccc2)C(C)C)nn1 (mixture of isomers) [Compound 2.40]
Reactivity k2 ([1]; TZ with TCO in MeCN at 20° C.): 1.22 M⁻¹ s⁻¹ | Release % (conversion) ([2]; Method C: 20% MeCN in PBS at 37° C., 22 h): 100% (22 h)

Cc1cc(C)cc(NC(=O)OC(C)c2nnc(-c3ccccc3)nn2)c1 (racemic) [Compound 2.17]
Reactivity k2 ([1]; TZ with TCO in MeCN at 20° C.): 4.5 M⁻¹ s⁻¹

CC(C)c1nnc(C(C)OC(=O)N(C)c2ccccc2)nn1 (racemic) [Compound 2.20]
Reactivity k2 ([1]; TZ with TCO in MeCN at 20° C.): 0.19 M⁻¹ s⁻¹ | Release % (conversion) ([2]; Method C: 20% MeCN in PBS at 37° C., 1.3 h): 45% | Release % (conversion) [2, 10]: 100%

CC(OC(=O)N(C)Cc1ccccc1)c1nnc(-c2ccccc2)nn1 (racemic) [Compound 2.21]
Reactivity k2 ([1]; TZ with TCO in MeCN at 20° C.): 2.54 M⁻¹ s⁻¹

CC(OC(=O)N(C)c1ccccc1)c1nnc(-c2ccccc2)nn1 (racemic) [Compound 2.22]
Reactivity k2 ([1]; TZ with TCO in MeCN at 20° C.): 2.51 M⁻¹ s⁻¹

O=C(NCc1ccccc1)OCc1nnc(COC(=O)NCc2ccccc2)nn1 [Compound 2.4]
Reactivity k2 ([1]; TZ with TCO in MeCN at 20° C.): 24 M⁻¹ s⁻¹

CC(OC(=O)c1ccccc1)c1nnc(C(C)OC(=O)c2ccccc2)nn1 (centres unmarked) [Compound 2.7]
Release % (conversion) [2, 11]: 96% (16 h) | half-life at 250 µM [3]: 0.75 days

CC(OC(=O)OCc1ccccc1)c1nnc(C(C)OC(=O)OCc2ccccc2)nn1 (centres unmarked) [Compound 2.8]
Release % (conversion) [2, 11]: 100% (16 h) | half-life at 250 µM [3]: 0.271 days

O=C(OCc1nnc(-c2ccccc2)nn1)Oc1ccccc1 [Compound 2.18]
Release % (conversion) [4]: 10% (23 h) | half-life at 250 µM [3]: < 0.167 days

CC(C)c1nnc(COC(=O)N(C)Cc2ccccc2)nn1 [Compound 2.19]
Release % (conversion) ([5]; Dienophile 4.0, axial isomer): 61% (21 h) | Stability t1/2 [6]: 32 h | Reactivity k2 ([1]; TZ with TCO in MeCN at 20° C.): 0.79 M⁻¹ s⁻¹

CN(Cc1ccccc1)C(=O)OCc1nnc(CCN(C)C(=O)OC(C)(C)C)nn1 [Compound 2.24]
Release % (conversion) ([5]; Dienophile 4.0, axial isomer): 51% (21 h) | Stability t1/2 [6]: 16 h | Reactivity k2 ([1]; TZ with TCO in MeCN at 20° C.): 4.6 M⁻¹ s⁻¹

CC(C)c1nnc(C(C)OC(=O)N(Cc2ccccc2)C(C)C)nn1 (centres unmarked) [Compound 2.42]
Release % (conversion) ([5]; Dienophile 4.8, endo isomer): 77% (21 h) | half-life at 248 µM ([6]; 50% mouse serum in PBS, read-out: Stability t1/2 (converted)): 2.29 days | Reactivity k2 ([1]; TZ with TCO in MeCN at 20° C.): 0.21 M⁻¹ s⁻¹ | Release % (conversion) [2, 10]: 100% (16 h) | half-life at 250 µM [3]: 27.1 days

CC(OC(=O)N(C)Cc1ccccc1)c1nnc(-c2ccc(NC(=O)OC(C)(C)C)cc2)nn1 (centres unmarked) [Compound 2.48]
Reactivity k2 ([1]; TZ with TCO in MeCN at 20° C.): 1.46 M⁻¹ s⁻¹ | half-life at 250 µM [3]: > 200 days

CC(OC(=O)N(C)Cc1ccccc1)c1nnc(-c2ccc(N)cc2)nn1 (centres unmarked) [Compound 2.49]
Reactivity k2 ([1]; TZ with TCO in MeCN at 20° C.): 0.44 M⁻¹ s⁻¹ | half-life at 250 µM [3]: > 200 days

O=C(Nc1ccccc1)OC/C=C/c1nnc(-c2ccccc2)nn1 [Compound 2.53]
half-life at 250 µM [3]: > 16.7 days

CC(C)c1nnc(/C=C/COC(=O)Nc2ccccc2)nn1 [Compound 2.57]
half-life at 250 µM (physchem): > 16.7 days | Reactivity k2 ([1]; TZ with TCO in MeCN at 20° C.): 0.33 M⁻¹ s⁻¹

O=C(NCc1nnc(CNC(=O)Oc2ccccc2)nn1)Oc1ccccc1 [Compound 3.2]
Release % (conversion) ([2]; Method B: 33% MeCN in PBS at 37° C., 19 h): 25% (19 h)

O=C(NC1CCCC1c1nnc(-c2ccccc2)nn1)Oc1ccccc1 (centres unmarked) [Compound 3.25]
half-life (physchem): > 5.83 days | Release % (conversion) ([2]; Method G: 50% MeCN in PBS at 37° C., 16 h): 57% (16 h)

O=C(Oc1ccccc1)N1CCCC1c1nnc(-c2ccccc2)nn1 (centres unmarked) [Compound 3.27]
Release % (conversion) ([2]; Method C: 20% MeCN in PBS at 37° C., 24 h): 49% | Release % (conversion) ([2]; Method C: 20% MeCN in PBS at 37° C., 48 h): 72% | half-life at 250 µM [3]: > 6.25 days

CCN(Cc1nnc(-c2cccc(NC(=O)COCCOCCOCCOCCOCCOCCOCCOCCOCCOCCOC)c2)nn1)C(=O)Oc1ccc(COC(=O)Nc2ccc3c(C)cc(=O)oc3c2)cc1 [Compound 3.33]
half-life (physchem): 8.33 days | Reactivity k2 ([1]; TZ with TCO in MeCN at 20° C. (cyclization series)): 4.7 M⁻¹ s⁻¹ | Release % (conversion) ([7]; 1 h): 20% | Release % (conversion) ([7]; 8 h): 80% | Release % (conversion) ([2]; Method E: 5% MeCN in PBS at 37° C., 1 h): 50% | Release % (conversion) ([2]; Method E: 5% MeCN in PBS at 37° C., 4 h): 80% | Release % (conversion) ([2]; Method E: 5% MeCN in PBS at 37° C., 72 h): 90% | Reactivity k2 [8]: 520 ([5]) M^−1 s^−1

O=C(NCCOCCOCCOCCOCCOCCOCCOCCOCCOCCO)[C@@H]1[C@@H]2CC/C=C/CC[C@@H]21 [Compound 4.6]
^111In-uptake in tumor ([9]; after 48 h activator 100 eq): 0.15 ± 0.05 % ID/g | ^111In-uptake in tumor ([9]; after 48 h activator 1000 eq): 0.14 ± 0.52 % ID/g

O=C(O)[C@@H]1[C@@H]2CC/C=C/CC[C@@H]21 [Compound 4.8, (E-endo)-bicyclo[6.1.0]non-4-ene-9-carboxylic acid]
^111In-uptake in tumor ([9]; after 48 h activator 100 eq): 0.13 ± 0.03 % ID/g | ^111In-uptake in tumor ([9]; after 48 h activator 1000 eq): 0.10 ± 0.03 % ID/g
